In patent publication US11839613B2, “Pyrimidine derivatives as PGE2 receptor modulators” (IDORSIA PHARMACEUTICALS LTD, priority 2017, dated 2023):

What was measured:
[1] = molecular target: PTGER4 (EP4) (Homo sapiens (Human), UniProt P35408); assay: cell-based
[2] = molecular target: PTGER2 (EP2) (Homo sapiens (Human), UniProt P43116); assay: hEP2 b-arrestin assay (PathHunter HEK 293 PTGER2 b-arrestin cells); format: cell-based; conditions: antagonistic activity, beta-arrestin assay; read-out: hEP2 b-arr IC50
Description: Plate is pre-incubated 15 minutes at 37° C. Then five microliters of PGE2 (final conc. 5 μM) are transferred into the assay plate. Plate is incubated 120 minutes at 37° C.
(each concentration is measured in duplicate)

PTGER4 (EP4), sequence (P35408 whole entry): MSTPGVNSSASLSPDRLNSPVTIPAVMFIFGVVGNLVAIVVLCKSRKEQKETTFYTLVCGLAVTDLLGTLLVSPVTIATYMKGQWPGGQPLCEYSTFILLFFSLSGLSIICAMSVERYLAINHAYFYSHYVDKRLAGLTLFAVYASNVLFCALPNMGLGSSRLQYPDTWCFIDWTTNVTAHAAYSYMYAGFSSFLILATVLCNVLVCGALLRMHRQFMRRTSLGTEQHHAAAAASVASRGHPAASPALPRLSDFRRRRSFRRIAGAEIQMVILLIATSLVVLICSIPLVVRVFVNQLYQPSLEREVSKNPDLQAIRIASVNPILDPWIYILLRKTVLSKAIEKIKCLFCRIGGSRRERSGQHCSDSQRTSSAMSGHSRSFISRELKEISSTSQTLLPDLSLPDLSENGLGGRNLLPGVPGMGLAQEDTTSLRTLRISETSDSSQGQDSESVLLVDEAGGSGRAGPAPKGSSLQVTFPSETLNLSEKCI
PTGER2 (EP2), sequence (P43116 whole entry): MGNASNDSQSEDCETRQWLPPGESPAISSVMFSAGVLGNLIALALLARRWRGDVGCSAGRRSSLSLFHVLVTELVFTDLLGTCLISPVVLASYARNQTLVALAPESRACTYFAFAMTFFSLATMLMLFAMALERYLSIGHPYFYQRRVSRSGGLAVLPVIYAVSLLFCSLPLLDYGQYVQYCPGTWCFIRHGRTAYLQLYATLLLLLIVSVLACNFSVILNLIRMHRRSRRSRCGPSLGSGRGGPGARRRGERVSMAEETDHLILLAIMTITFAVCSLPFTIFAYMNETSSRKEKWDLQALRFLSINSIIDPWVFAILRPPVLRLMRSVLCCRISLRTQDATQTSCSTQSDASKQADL

SMILES	IC50 [1] [nM]	IC50 [2] [nM]
COc1cc2c(c(C)c1CCNc1cc(-c3ccc(CC(=O)O)c(OC(C)C)c3)ncn1)OCCO2 [Example 426, (2-Isopropoxy-4-{6-[2-(7-methoxy-5-methyl-2,3-dihydro-benzo[1,4]dioxin-6-yl)-ethylamino]-pyrimidin-4-yl}-phenyl)-acetic acid]	46	9
CCOc1cc2c(cc1CCNc1cc(-c3ccc(CC(=O)O)c(OC(F)(F)F)c3)ncn1)OCCO2 [Example 427, (4-{6-[2-(7-Ethoxy-2,3-dihydro-benzo[1,4]dioxin-6-yl)-ethylamino]-pyrimidin-4-yl}-2-trifluoromethoxy-phenyl)-acetic acid]	90	17
COc1cc2c(c(C)c1CCNc1cc(-c3ccc(CC(=O)O)c(OC(F)(F)F)c3)ncn1)OCCO2 [Example 428, (4-{6-[2-(7-Methoxy-5-methyl-2,3-dihydro-benzo[1,4]dioxin-6-yl)-ethylamino]-pyrimidin-4-yl}-2-trifluoromethoxy-phenyl)-acetic acid]	41	7
CSc1cc(-c2cc(NCCc3ccc4scc(Cl)c4c3)ncn2)ccc1C(=O)O [Example 429, 4-{6-[2-(3-Chloro-benzo[b]thiophen-5-yl)-ethylamino]-pyrimidin-4-yl}-2-methylsulfanyl-benzoic acid]	60	52
O=C(O)c1ccc(-c2cc(NCCc3ccc4scc(Cl)c4c3)ncn2)cc1OC1CCC1 [Example 430, 4-{6-[2-(3-Chloro-benzo[b]thiophen-5-yl)-ethylamino]-pyrimidin-4-yl}-2-cyclobutoxy-benzoic acid]	66	69
CCOc1cc(-c2cc(NCCc3ccc4scc(Cl)c4c3)ncn2)ccc1CC(=O)O [Example 431, (4-{6-[2-(3-Chloro-benzo[b]thiophen-5-yl)-ethylamino]-pyrimidin-4-yl}-2-ethoxy-phenyl)-acetic acid]	52	179
COc1cc2c(c(C)c1CCNc1cc(-c3ccc(C(=O)O)c(OC(C)C)c3)ncn1)OCCO2 [Example 432, 2-Isopropoxy-4-{6-[2-(7-methoxy-5-methyl-2,3-dihydro-benzo[1,4]dioxin-6-yl)-ethylamino]-pyrimidin-4-yl}-benzoic acid]	87	20
CCOc1cc(-c2cc(NCCc3cc4c(cc3OC(F)F)OCCO4)ncn2)sc1C(=O)O [Example 433, 5-{6-[2-(7-Difluoromethoxy-2,3-dihydro-benzo[1,4]dioxin-6-yl)-ethylamino}-pyrimidin-4-yl}-3-ethoxy-thiophene-2-carboxylic acid]	19	30
COc1cc(-c2cc(NCCc3c(OC)cc4c(c3C)OCCO4)ncn2)ccc1CC(=O)O [Example 434, (2-Methoxy-4-{6-[2-(7-methoxy-5-methyl-2,3-dihydro-benzo[1,4]dioxin-6-yl)-ethylamino]-pyrimidin-4-yl}-phenyl)-acetic acid]	58	26
CCOc1cc(-c2cc(NCCc3c(OC)cc4c(c3F)OCCO4)ncn2)ccc1C(=O)O [Example 435, 2-Ethoxy-4-{6-[2-(5-fluoro-7-methoxy-2,3-dihydro-benzo[1,4]dioxin-6-yl)-ethylamino]-pyrimidin-4-yl}-benzoic acid]	110	46
COc1cc(-c2cc(NCCc3ccc4sccc4c3F)ncn2)ccc1OCCC(=O)O [Example 437, 3-(4-{6-[2-(4-Fluoro-benzo[b]thiophen-5-yl)-ethylamino]-pyrimidin-4-yl}-2-methoxy-phenoxy)-propionic acid]	41	104
COc1cc(-c2cc(NCCc3cc(F)c4sccc4c3)ncn2)ccc1OCCC(=O)O [Example 438, 3-(4-{6-[2-(7-Fluoro-benzo[b]thiophen-5-yl)-ethylamino]-pyrimidin-4-yl}-2-methoxy-phenoxy)-propionic acid]	49	519
COc1cc2c(c(C)c1CCNc1cc(-c3ccc(CC(=O)O)c(OC(F)F)c3)ncn1)OCCO2 [Example 441, (2-Difluoromethoxy-4-{6-[2-(7-methoxy-5-methyl-2,3-dihydro-benzo[1,4]dioxin-6-yl)-ethylamino]-pyrimidin-4-yl}-phenyl)-acetic acid]	53	10
COc1cc2c(c(F)c1CCNc1cc(-c3ccc(CC(=O)O)c(OC(F)F)c3)ncn1)OCCO2 [Example 442, (2-Difluoromethoxy-4-{6-[2-(5-fluoro-7-methoxy-2,3-dihydro-benzo[1,4]dioxin-6-yl)-ethylamino]-pyrimidin-4-yl}-phenyl)-acetic acid]	27	82
COc1cc2ccccc2c(C)c1CCNc1cc(-c2ccc(CC(=O)O)c(OC(F)F)c2)ncn1 [Example 443, (2-Difluoromethoxy-4-{6-[2-(3-methoxy-1-methyl-naphthalen-2-yl)-ethylamino]-pyrimidin-4-yl}-phenyl)-acetic acid]	29	107
CCc1cc(-c2cc(NCCc3c(OC)cc4c(c3C)OCCO4)ncn2)ccc1CC(=O)O [Example 444, (2-Ethyl-4-{6-[2-(7-methoxy-5-methyl-2,3-dihydro-benzo[1,4]dioxin-6-yl)-ethylamino]-pyrimidin-4-yl}-phenyl)-acetic acid]	43	15

SMILES	IC50 [1] [nM]	IC50 [2] [nM]
CCc1cc(-c2cc(NCCc3c(OC)cc4ccccc4c3C)ncn2)ccc1CC(=O)O [Example 445, (2-Ethyl-4-{6-[2-(3-methoxy-1-methyl-naphthalen-2-yl)-ethylamino]-pyrimidin-4-yl}-phenyl)-acetic acid]	38	88
CCc1cc(-c2cc(NCCc3c(OC)cc4ccccc4c3C)ncn2)ccc1C(=O)O [Example 446, 2-Ethyl-4-{6-[2-(3-methoxy-1-methyl-naphthalen-2-yl)-ethylamino]-pyrimidin-4-yl}-benzoic acid]	108	32
CCOc1cc2c(cc1CCNc1cc(-c3ccc(C(=O)O)c(OC4CC4)c3)ncn1)OCCO2 [Example 447, 2-Cyclopropoxy-4-{6-[2-(7-ethoxy-2,3-dihydro-benzo[1,4]dioxin-6-yl)-ethylamino]-pyrimidin-4-yl}-benzoic acid]	130	2
COc1cc2ccccc2c(C)c1CCNc1cc(-c2ccc(C(=O)O)c(OC3CC3)c2)ncn1 [Example 448, 2-Cyclopropoxy-4-{6-[2-(3-methoxy-1-methyl-naphthalen-2-yl)-ethylamino]-pyrimidin-4-yl}-benzoic acid]	46	15
O=C(O)c1ccc(-c2cc(NCCc3cc(F)c4sccc4c3)ncn2)cc1OC1CC1 [Example 449, 2-Cyclopropoxy-4-{6-[2-(7-fluoro-benzo[b]thiophen-5-yl)-ethylamino]-pyrimidin-4-yl}-benzoic acid]	46	83
COc1cc2c(cc1CCNc1cc(-c3ccc(CC(=O)O)c(OC(F)(F)F)c3)ncn1)OCCO2 [Example 450, (4-{6-[2-(7-Methoxy-2,3-dihydro-benzo[1,4]dioxin-6-yl)-ethylamino]-pyrimidin-4-yl}-2-trifluoromethoxy-phenyl)-acetic acid]	97	66
CCCc1cc(-c2cc(NCCc3cc(F)c4sccc4c3)ncn2)ccc1C(N)=O [Example 457, 4-{6-[2-(7-Fluoro-benzo[b]thiophen-5-yl)-ethylamino]-pyrimidin-4-yl}-2-propyl-benzamide]	176	200
CCCc1cc(-c2cc(NCCc3cc(F)c4sccc4c3)ncn2)ccc1C(=O)NC [Example 458, 4-{6-[2-(7-Fluoro-benzo[b]thiophen-5-yl)-ethylamino]-pyrimidin-4-yl}-N-methyl-2-propyl-benzamide]	104	550
CCCc1cc(-c2cc(NCCc3cc(F)c4sccc4c3)ncn2)ccc1C(=O)NCC(C)(C)O [Example 459, 4-{6-[2-(7-Fluoro-benzo[b]thiophen-5-yl)-ethylamino]-pyrimidin-4-yl}-N-(2-hydroxy-2-methyl-propyl)-2-propyl-benzamide]	236	683
CCCc1cc(-c2cc(NCCc3cc(F)c4sccc4c3)ncn2)ccc1C(=O)NCCO [Example 460, 4-{6-[2-(7-Fluoro-benzo[b]thiophen-5-yl)-ethylamino]-pyrimidin-4-yl}-N-(2-hydroxy-ethyl)-2-propyl-benzamide]	161	207
CCOc1cc(-c2cc(NCCc3cc(F)c4sccc4c3)ncn2)ccc1C(N)=O [Example 461, 2-Ethoxy-4-{6-[2-(7-fluoro-benzo[b]thiophen-5-yl)-ethylamino]-pyrimidin-4-yl}benzamide]	121	231
CCOc1cc(-c2cc(NCCc3cc(F)c4sccc4c3)ncn2)ccc1C(=O)NC [Example 462, 2-Ethoxy-4-{6-[2-(7-fluoro-benzo[b]thiophen-5-yl)-ethylamino]-pyrimidin-4-yl}-N-methyl-benzamide]	197	325
CCOc1cc(-c2cc(NCCc3cc(F)c4sccc4c3)ncn2)ccc1C(=O)NCCO [Example 464, 2-Ethoxy-4-{6-[2-(7-fluoro-benzo[b]thiophen-5-yl)-ethylamino]-pyrimidin-4-yl}-N-(2-hydroxy-ethyl)-benzamide]	87	300
COC(=O)c1sc(-c2cc(NCCc3ccc4ccccc4c3C)ncn2)cc1O [Example 468, 3-Hydroxy-5-{6-[2-(1-methyl-naphthalen-2-yl)-ethylamino]-pyrimidin-4-yl}-thiophene-2-carboxylic acid methyl ester]	571	564
CCOc1cc(-c2cc(NCCc3cc4ccsc4cc3C)ncn2)cc(F)c1CC(=O)O [Example 469, (2-Ethoxy-6-fluoro-4-{6-[2-(6-methyl-benzo[b]thiophen-5-yl)-ethylamino]-pyrimidin-4-yl}-phenyl)-acetic acid]	480	502
